Experimental data from US10961234B2, “Oxazole derivatives for use in the treatment of cancer” (LIFEARC, priority 2016, dated 2021).
pEC50, pIC50: −log10 of the molar value.

Columns and labels:
WT full length PAICS = biological target: T1, WT full length PAICS (Homo sapiens, UniProt P22234); assay: Biochemical assay to measure PAICS activity (Transcreener ADP2 FI, SAICAR synthetase reaction); conditions: PAICS 2.5 nM, 30 mins pre-incubation, ADP detection by fluorescence intensity
T1 construct: 5 μl WT full length PAICS (final assay concentration, fac, 2.5 nM) in basic buffer
T1 sequence (P22234 1-425): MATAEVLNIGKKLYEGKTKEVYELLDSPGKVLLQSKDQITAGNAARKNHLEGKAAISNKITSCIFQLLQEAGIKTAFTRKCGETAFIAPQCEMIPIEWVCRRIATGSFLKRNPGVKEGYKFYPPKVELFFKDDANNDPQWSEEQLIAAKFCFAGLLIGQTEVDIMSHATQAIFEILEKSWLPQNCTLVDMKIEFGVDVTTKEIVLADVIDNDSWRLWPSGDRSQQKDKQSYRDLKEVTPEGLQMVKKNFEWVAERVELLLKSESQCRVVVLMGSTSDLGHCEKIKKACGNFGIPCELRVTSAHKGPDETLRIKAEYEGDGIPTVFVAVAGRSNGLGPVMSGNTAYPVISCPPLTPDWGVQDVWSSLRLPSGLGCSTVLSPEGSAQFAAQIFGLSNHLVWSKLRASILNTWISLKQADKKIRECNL
Text: The biochemical assay was used to measure PAICS SAICAR synthetase-mediated conversion of CAIR, aspartic acid and ATP to SAICAR, ADP and inorganic phosphate (PI), post-AIR/CAIR equilibration (see FIG. 3). This was achieved by detecting the ADP generated during the reaction, using Bellbrook Lab's Transcreener ADP^2 FI assay. An increase in the fluorescence intensity is directly proportional to the amount of PAICS activity.
The Transcreener ADP^2 FI assay is a homogeneous competitive displacement fluorescence intensity assay which uses direct immunodetection of ADP. Displacement of the tracer by ADP causes an increase in the fluorescence at excitation 590 nm and emission 617 nm (FIG. 3).
5 μl WT full length PAICS (final assay concentration, fac, 2.5 nM) in basic buffer, added to black, non-binding, 384-well plates (Corning #3575), columns 1 to 22.5 μl basic buffer was added to columns 23+24 (negative control). PAICS stock at 31.9 μM from the PI's lab (Steve Firestine). Basic buffer contained 50 mM Tris-HCl pH8 and 0.5 mM EDTA, fac.
1 μl compound in 100% DMSO added per well, or 1 μl 100% DMSO to positive controls (columns 1+2) and negative controls (columns 23+24). Final assay top concentration of compound either 1 mM or 30 μM, serially diluted with half-log dilutions across the plate in duplicate (one 10-point concentration response curve across wells 3 to 12, another across 13 to 22). Compounds pre-incubated with PAICS enzyme for 30 mins at RT.
2 μl CAIR added (fac 10 μM) in basic buffer plus 25 mM MgCl2 and 50 mM KHCO3 fac to all wells. CAIR stock 50 mM from Steve Firestine's lab. 1 hr RT incubation for AIR-CAIR equilibration. NB: ˜50% CAIR is decarboxylated during equilibration therefore 5 μM remains for the synthetase reaction.
2 μl ATP/aspartic acid added (fac 30 μM/180 μM) in reaction buffer to all wells. 30 mins RT incubation for appropriate level of ATP turnover. Reaction buffer contained basic buffer plus 10 mM DTT, 0.01% BSA and 0.01% Brij 35, fac.
10 μl ADP detection reagent added to all wells (as per instructions, Transcreener ADP^2 FI kit, BellBrook Labs #3013-10K). Incubation for 1 h at RT to allow antibody equilibration. Fluorescence intensity determined using a Tecan Safire2 (excitation at 590 nm, emission at 617 nm).

[1] = system: LM2 and MDA-MB-231 breast cancer cell lines; assay: PAICS 2D cell proliferation assay; format: cell-based; conditions: Homo sapiens; 72 hours incubation; cell line (LM2 or MDA-MB-231) not given
Procedure: Frozen cryovial stocks of LM2 and MDA-MB-231 breast cancer cell lines were thawed and cultured in 4.5 g/L glucose DMEM (31966-047, Invitrogen) supplemented with 10% Fetal Bovine Serum (10500-064, Invitrogen) until confluent in a T175 flask. Cells were incubated at 37° C. with 5% CO2 in a humidified incubator.
Cells were collected from T175 flasks by washing with PBS (10010-056, Invitrogen) and dissociated using Accutase (A6964, Sigma Aldrich). This was followed by centrifuging (1200 rpm, 5 min) and resuspending the cells in 10 ml of media containing 1% penicillin/streptomycin (15140-122, Invitrogen). Cells were counted by trypan blue exclusion method using an automated cell counter (Cellometer) and diluted to a concentration of 40,000/ml. 1000 cells were then seeded into 384-well white-walled plates (Corning, 3707) in a volume of 25 μl. Plates were incubated overnight at 37° C. with 5% CO2.
After 24 hours, PAICS compounds were added onto the assay plates using an HP D300 Digital Dispenser (Hewlett Packard). 10 mM stocks were used and dispensed as a 10 point concentration response curve (CRC) ½ log dilution series with a final top concentration of 100 μM. Controls were added onto each plate: positive controls included Staurosporine CRC (100 μM stock dispensed as a 10 point CRC ½ log dilution series with a final top concentration of 1 μM) and PAICS compound MRT00211919 (10 mM stock dispensed as a 10 point CRC ½ log dilution series with a final top concentration of 100 μM); a high control of Staurosporine (0.1 μM (LM2), 0.316 μM (MDA-MB-231) FAC) and a low control of media containing 1% DMSO. A final concentration of 1% DMSO was then added across the plates for normalisation. Following compound addition, assay plates were incubated for 72 hours at 37° C. with 5% CO2.
After 72 h incubation, dead and viable cells were measured in each assay plate. Cytotoxicity was assessed through fluorescent DNA staining using the CellTox™ Green Cytotoxicity Assay kit (G8743, Promega) following the manufacturer's multiplexing protocol. Impaired cell membrane integrity results in the access of dye to stain DNA allowing quantification of dead cells. Cell viability was determined following ATP quantification using the CellTiter-Glo® Luminescent Cell Viability Assay kit (G7572, Promega) following the manufacturer's protocol. ATP released from lysed cells allowed for the generation of a signal proportional to the number of cells present in the well. All endpoint reads were performed using the PheraSTAR Plus (BMG Labtech). Data is expressed as % viable cells and % dead cells against controls (mean±SEM of duplicate curves).

SMILES | pIC50 (WT full length PAICS) | pEC50 [1]
CN(C)CCOc1ccc(-c2ccc(Cl)c(NC(=O)c3coc(N)n3)c2)cn1 [Example 73, 2-Amino-N-(2-chloro-5-(6-(2-(dimethylamino)ethoxy)pyridin-3-yl)phenyl)oxazole-4-carboxamide] | 7.00 to 7.60 | 6.30 to 6.60
CN(C)CCOc1ncc(-c2ccc(Cl)c(NC(=O)c3coc(N)n3)c2)cn1 [Example 74, 2-Amino-N-(2-chloro-5-(2-(2-(dimethylamino)ethoxy)pyrimidin-5-yl)phenyl)oxazole-4-carboxamide] | 7.00 to 7.60 | 6.30 to 6.60
CN(C)CCOc1ccc(-c2ccc(Cl)c(NC(=O)c3coc(N)n3)c2)cc1 [Example 75, 2-Amino-N-{4-chloro-4′-[2-(dimethylamino)ethoxy]biphenyl-3-yl}-1,3-oxazole-4-carboxamide] | 7.00 to 7.60 | 6.60 to 7.00
Nc1nc(C(=O)Nc2cc(-c3ccc(CN4CCNCC4)nc3)ccc2Cl)co1 [Example 76, 2-Amino-N-{2-chloro-5-[6-(piperazin-1-ylmethyl)pyridin-3-yl]phenyl}-1,3-oxazole-4-carboxamide] | 7.00 to 7.60 | 6.30 to 6.60
Nc1nc(C(=O)Nc2cc(-c3ccc(CN[C@H]4CC[C@H](N)CC4)nc3)ccc2Cl)co1 [Example 77, 2-Amino-N-[5-(6-{[(trans-4-aminocyclohexyl)amino]methyl}pyridin-3-yl)-2-chlorophenyl]-1,3-oxazole-4-carboxamide] | 7.60 to 8.00 | 6.30 to 6.60
CN1CCC(NCc2ccc(-c3ccc(Cl)c(NC(=O)c4coc(N)n4)c3)cn2)CC1 [Example 78, 2-Amino-N-[2-chloro-5-(6-{[(1-methylpiperidin-4-yl)amino]methyl}pyridin-3-yl)phenyl]-1,3-oxazole-4-carboxamide] | 7.60 to 8.00 | 6.60 to 7.00
Nc1nc(C(=O)Nc2cc(-c3ccc(CN4CC5CNCC5C4)nc3)ccc2Cl)co1 (centres unmarked) [Example 79, 2-Amino-N-{2-chloro-5-[6-(hexahydropyrrolo[3,4-c]pyrrol-2(1H)-ylmethyl)pyridin-3-yl]phenyl}-1,3-oxazole-4-carboxamide] | 7.60 to 8.00 | 6.30 to 6.60
Nc1nc(C(=O)Nc2cc(-c3cnn(CCN4CCNCC4)c3)ccc2Cl)co1 [Example 81, 2-Amino-N-(2-chloro-5-{1-[2-(piperazin-1-yl)ethyl]-1H-pyrazol-4-yl}phenyl)-1,3-oxazole-4-carboxamide] | 7.00 to 7.60 | 6.30 to 6.60
Nc1nc(C(=O)Nc2cc(-c3cnc(OC4CCNCC4)nc3)ccc2Cl)co1 [Example 82, 2-Amino-N-{2-chloro-5-[2-(piperidin-4-yloxy)pyrimidin-5-yl]phenyl}-1,3-oxazole-4-carboxamide] | 7.60 to 8.00 | 6.30 to 6.60
CN1CCN(Cc2ccc(-c3ccc(Cl)c(NC(=O)c4coc(N)n4)c3)cn2)CC1 [Example 83, 2-Amino-N-(2-chloro-5-{6-[(4-methylpiperazin-1-yl)methyl]pyridin-3-yl}phenyl)-1,3-oxazole-4-carboxamide] | 7.00 to 7.60 | 6.30 to 6.60
Nc1nc(C(=O)Nc2cc(-c3ccc(OC4CCNCC4)nc3)ccc2Cl)co1 [Example 84, 2-Amino-N-{2-chloro-5-[6-(piperidin-4-yloxy)pyridin-3-yl]phenyl}-1,3-oxazole-4-carboxamide] | 7.60 to 8.00 | 6.30 to 6.60
Nc1nc(C(=O)Nc2cc(-c3cnc(OC4CCNCC4)s3)ccc2Cl)co1 [Example 87, 2-Amino-N-{2-chloro-5-[2-(piperidin-4-yloxy)-1,3-thiazol-5-yl]phenyl}-1,3-oxazole-4-carboxamide] | > 8.00 | > 7.00
Nc1nc(C(=O)Nc2cc(-c3nc(CN4CCNCC4)cs3)ccc2Cl)co1 [Example 89, 2-Amino-N-{2-chloro-5-[4-(piperazin-1-ylmethyl)-1,3-thiazol-2-yl]phenyl}-1,3-oxazole-4-carboxamide] | > 8.00 | > 7.00
Nc1nc(C(=O)Nc2cc(-c3cnc(CN4CCNCC4)s3)ccc2Cl)co1 [Example 90, 2-Amino-N-{2-chloro-5-[2-(piperazin-1-ylmethyl)-1,3-thiazol-5-yl]phenyl}-1,3-oxazole-4-carboxamide] | 7.60 to 8.00 | 6.60 to 7.00
CNC1CCN(Cc2ncc(-c3ccc(Cl)c(NC(=O)c4coc(N)n4)c3)s2)CC1 [Example 91, 2-Amino-N-[2-chloro-5-(2-{[4-(methylamino)piperidin-1-yl]methyl}-1,3-thiazol-5-yl)phenyl]-1,3-oxazole-4-carboxamide] | > 8.00 | > 7.00
CSc1ccc(-c2ccc(OCCCN(C)C)nc2)cc1NC(=O)c1coc(N)n1 [Example 92, 2-Amino-N-[5-{6-[3-(dimethylamino)propoxy]pyridin-3-yl}-2-(methylsulfanyl)phenyl]-1,3-oxazole-4-carboxamide] | 7.00 to 7.60 | 6.30 to 6.60
CN(C)CCCOc1ccc(-c2ccc(Cl)c(NC(=O)c3coc(N)n3)c2)nc1 [Example 93, 2-Amino-N-(2-chloro-5-{5-[3-(dimethylamino)propoxy]pyridin-2-yl}phenyl)-1,3-oxazole-4-carboxamide] | 7.00 to 7.60 | 6.30 to 6.60
CNCC1CCN(Cc2ncc(-c3ccc(Cl)c(NC(=O)c4coc(N)n4)c3)s2)CC1 [Example 94, 2-Amino-N-{2-chloro-5-[2-({4-[(methylamino)methyl]piperidin-1-yl}methyl)-1,3-thiazol-5-yl]phenyl}-1,3-oxazole-4-carboxamide] | 7.60 to 8.00 | > 7.00
CNC1CCCN(Cc2ncc(-c3ccc(Cl)c(NC(=O)c4coc(N)n4)c3)s2)C1 (centres unmarked) [Example 95, 2-Amino-N-[2-chloro-5-(2-{[3-(methylamino)piperidin-1-yl]methyl}-1,3-thiazol-5-yl)phenyl]-1,3-oxazole-4-carboxamide] | > 8.00 | 6.60 to 7.00
